From ChEMBL document CHEMBL1158131, “Daryamides A-C, weakly cytotoxic polyketides from a marine-derived actinomycete of the genus Streptomyces strain CNQ-085” (J Nat Prod, 2006)
Values after ≈ are worked out from the molar mass of the structure shown. Active and inactive are the calls of the source. The calls are words filed in the database; no cut-off is given here.

What was measured:
[1] = system: HCT-116; test: Cytotoxicity against human HCT116 cells; format: functional, cell-based
[2] = system: Staphylococcus aureus; test: Antibacterial activity against methicillin-resistant Staphylococcus aureus; format: functional, organism-based
[3] = system: Candida albicans; test: Antifungal activity against Candida albicans; format: functional

**Q.** How did the IC50 [1] turn out when CC(C)C/C=C/C=C/C(=O)NC1=CC(O)(CCC(N)=O)C=CC1=O (configuration not stated) [DARYAMIDE B] was run?
**A.** 9.99 µg/mL (≈ 30.1 µM)

**Q.** And the Activity [2]?
**A.** inactive

**Q.** What about the MIC [3] of the same compound?
**A.** 125 µg/mL (≈ 376 µM)

**Q.** Which results are given for CC(C)C/C=C/C=C/C(N)=O?
**A.** IC50 [1]: 21.7 µg/mL (≈ 142 µM); Activity [2]: inactive; Activity [3]: inactive

**Q.** How did the IC50 [1] turn out when CC(C)C/C=C/C=C/C(=O)NC1=C[C@@](O)(CCC(N)=O)[C@H](O)CC1=O [DARYAMIDE A] was run?
**A.** 3.15 µg/mL (≈ 8.99 µM)

**Q.** What about the Activity [2] of the same compound?
**A.** inactive

**Q.** What about the MIC [3] of the same compound?
**A.** 62.5 µg/mL (≈ 178 µM)

**Q.** For CC(C)/C=C/C=C/C(=O)NC1=CC(O)(CCC(N)=O)C=CC1=O (configuration not stated) [DARYAMIDE C], which IC50 [1] is on record?
**A.** 10 µg/mL (≈ 31.5 µM)

**Q.** What about the Activity [2] of the same compound?
**A.** inactive

**Q.** What about the Activity [3] of the same compound?
**A.** inactive
